Assay [1] has as its system Carnations (cultivar Miledy). The experiment in a line: senescence of carnations after simulated dry transport. Format: in vivo, carnation. The method, then: The flowers were treated for one day with silver thiosulfate (STS), t-BOC-AOA, or with water in the case of controls. The flowers were then subjected to simulated dry transport conditions: 4 days at 8° C. and a relative humidity of 75%. The bottom 5 cm of each stem was then removed, and the flowers were incubated on water for 2 hours at 8° C. and a relative humidity of 75%. The flowers were then transferred to a climate room with standard flower development conditions (20° C., relative humidity of 75%, light level of 1000 lux). Senescence of the flowers was then determined every day. If flowers started wilting (mostly at the edges of the petals) or changed color they were no longer in the category of “flowers in a perfect stage” (see Table 3).

Assay [2] has as its system apple stalk slices. The experiment in a line: rooting regeneration on apple stalk slices with elicitors. The format is cell-based. The settings on record: roots, apple, 1 μM indolebutyric or indoleacetic acid, 1 or 3 days. Here is the method:
The effect of the elicitors on rooting regeneration on apple stalk slices was studied. The stalk slices were incubated on medium with elicitors in combination with a sub-optimal auxin concentration (1 μM indolebutyric acid or 1 μM indoleacetic acid) which were added for 1 or 3 days to the plant tissue for testing. The increase was measured in the number of regenerated roots compared to the auxin control.

For assay [3], the system named is rose. Briefly: rooting powder comparison, rooting and development of scions, rose. Format: in vivo. Set-up: key: 1: The compounds with the best relative overall effect on rooting and development were placed in category I; categories which ranged from 1 to 6. The source says: (§1) d) In Table 2 standard indol butyric acid (IBA), which is the active component in most currently used rooting powders, is compared with indol hexanolic acid (IHA) and two BSA adducts, both—coupled, namely IBA and indole acetic acid (BSA-N-IAA). The effect on rooting and the plant development (stem growth, outgrowth of new shoots, synchronicity of growth of a population of plants) were inter alia factors determining the place in the categories which ranged from 1 to 6. The compounds with the best relative overall effect on rooting and development were placed in category I. Rooting and subsequent development of scions for different types of herbaceous and woody plants differs largely for those types of plants. A rose cultivar, “enermus stur cinq”, was used as an example of a recalcitrant woody plant. The chrysanthemum species “regan” is an example of an easy to root herbaceous plant.

The subject of assay [4] is tissue explants of rose. Briefly: shoot formation on tissue explants of rose. Format: cell-based. Here is the method:
It was also observed that tissue explants of rose when treated with IBA (normal addition) or IHA, respectively, formed about 50 times more shoots (2 shoots versus 100 per 20 tissue explants) in the latter case.
In the studies for new applications of PGRs and/or elicitors, which were performed within the framework of the present invention, several new and unexpected observations were made. […] Furthermore, the inventors established that elicitors do cause a statistically significant growth retardation of all tissues, as can be illustrated for rose shoots. This effect was enhanced by PGR(s), in casu antigibberelins, i.e. paclobutrasol. […] Finally the observation was made that when tissue explants of rose were treated with respectively IBA (normal addition) or IHA, in the last case about 50 times more shoots were formed (2 shoots versus 100 per 20 tissue explants).

Assay [5] deals with chrysanthemum. The experiment in a line: rooting powder comparison, rooting and development of scions, chrysanthemum. Format: in vivo. Set-up: key: 1: The compounds with the best relative overall effect on rooting and development were placed in category I; categories which ranged from 1 to 6.
Description: as §1

Assay [6] concerns rose, chrysanthemum, carnation. The experiment in a line: rooting powder comparison, average over species. The format is in vivo. The settings on record: for average category: average over the species tested.
Description: as §1

In assay [7] the test system is cut flowers (carnations). The experiment in a line: retarding the aging of cut flowers. The format is in vivo, carnation. Here is the method:
The DMF was evaporated and the remaining solid was dissolved in methanol and filtered. Diluted hydrochloric acid was added to the methanol solution. After 2 hours at room temperature the solvent was evaporated and G-A-A was obtained.

The test system of assay [8] is carnation. Briefly: rooting powder comparison, rooting and development of scions, carnation. Format: in vivo. On the set-up: key: 1: The compounds with the best relative overall effect on rooting and development were placed in category I; categories which ranged from 1 to 6.
Description: as §1

In assay [9] the test system is apple. Briefly: roots per tissue fragment in apple. Format: cell-based. The source says:
An apple IAA may induce a maximum of 3.5 roots per tissue fragment, while IAA-N-BSA induces a maximum of 8 roots per tissue fragment. Very recalcitrant trees like summer oak and cork oak can be rooted to a much higher percentage than with any of the conventionally applied rooting powders. The compounds described in EXAMPLE 3 and together with elicitors in Table 1 show similar effects.

Assay [10] concerns apple and rose. Briefly: rooting in apple and rose, stem-disk method. Particulars: rooting powder, stem-disks. The format is cell-based. Here is the method: The auxin compounds were tested with respect to rooting in apple and rose
b) Tests are performed by the stem-disk method as published by Van der Krieken et al., Plant Cell Reports (1993), vol. 12, 203-206, in which the number of roots of a large number of stem-disks cut from a particular plant are counted and treated with rooting powder containing in this case the compounds described.

For assay [11], the system named is plantroots. The experiment in a line: root induction by chemically modified auxins on various plants. Particulars: in vivo. The source says:
Attaching IAA to BSA is done to increase the amount of IAA administered to the roots. Up to 32 IAA molecules can be attached to BSA in 2 different ways. Either as N-conjugate of IAA or as C-conjugate. Upon addition of the IAA-BSA to plantroots, the IAA is split off in the root and leads to the availability of IAA during a longer period allowing the root tissue to become sensitive.

The mark [12] stands for this setting: 7 d after the start of the experiment.
[13] abbreviates: 8 d after the start of the experiment.
Where [14] appears, read: 9 d after the start of the experiment.
[15] abbreviates: 10 d after the start of the experiment.
[16] abbreviates: 11 d after the start of the experiment.
[17] abbreviates: 12 d after the start of the experiment.
The mark [18] stands for this setting: 13 d after the start of the experiment.
[19] abbreviates: 14 d after the start of the experiment.
The mark [20] stands for this setting: 15 d after the start of the experiment.
Where [21] appears, read: 16 d after the start of the experiment.
Setting [22] is: 17 d after the start of the experiment.
Where [23] appears, read: 18 d after the start of the experiment.
Where [24] appears, read: 19 d after the start of the experiment.
The mark [25] stands for this setting: 20 d after the start of the experiment.
Where [26] appears, read: 21 d after the start of the experiment.
Setting [27] is: 22 d after the start of the experiment.
Setting [28] is: rose enermus stur cinq (recalcitrant woody plant).
Where [29] appears, read: chrys. regan (easy to root herbaceous plant).

The values that follow come from US20030027722A1, “Influencing the activity of plant growth regulators” (priority 1998, published 2003).

“silver thiosulfate [STS, reference compound]”: the “Percentage of flowers in the perfect stage after treatment” value (shortened to “Percentage of flowers”) in [1] (setting [12]), in assay [1] (setting [13]), in [1] (setting [14]), in assay [1] (setting [15]), in [1] (setting [16]) and in [1] (setting [17]) was 100% in each case. Further, the “Percentage of flowers” value in [1] (setting [18]) was 100%; in assay [1] (setting [19]) it was 100%; in assay [1] (setting [20]), 100%; in assay [1] (setting [21]) it was 100%; in [1] (setting [22]), 88%; in assay [1] (setting [23]), 65%. For the same compound, the “Percentage of flowers” value in [1] (setting [24]) is 8%; in assay [1] (setting [25]), 0%; in [1] (setting [26]) it was 0%; in assay [1] (setting [27]), 0%.
In the case of `O=C(OC[C@H]1O[C@@H](OC(=O)c2cc(O)c(O)c(OC(=O)c3cc(O)c(O)c(O)c3)c2)[C@H](OC(=O)c2cc(O)c(O)c(OC(=O)c3cc(O)c(O)c(O)c3)c2)[C@@H](OC(=O)c2cc(O)c(O)c(OC(=O)c3cc(O)c(O)c(O)c3)c2)[C@@H]1OC(=O)c1cc(O)c(O)c(OC(=O)c2cc(O)c(O)c(O)c2)c1)c1cc(O)c(O)c(OC(=O)c2cc(O)c(O)c(O)c2)c1` [tannic acid], in [2] (elicitor 1 μM), the “increased regeneration in relation to control (auxin alone)” value (shortened to “increased regeneration in relation”) turned out to be 225%.
In the case of “indole butyric acid [IBA, reference compound]”, the “category of relative overall effect on rooting and plant development” value (“category of relative overall effect” below) in [3] (setting [28]) is 3; in assay [3] (rose n. brier) it was 1; in [5] (setting [29]) it was 4; in [5] (chrys. snowdon) it was 1. For the same compound, in [4], the shoots formed is given as 2 shoots per 20 tissue explants. This compound also registered an average category in [6] of 2.25.
“glucose-acetate-amino-oxyacetic acid [G-A-A]”: the effect against aging result in assay [7] (carnation) is listed as “effective means against aging”.
Regarding “IBA-N-BSA: N-conjugate with BSA made with IBA instead of IAA”, the “category of relative overall effect” value in assay [8] (carnation m. brilj.) is 1; in assay [8] (carnation tempo), 3; in assay [3] (setting [28]) it was 2; in assay [3] (rose n. brier), 1; in assay [5] (setting [29]) it was 4; in assay [5] (chrys. snowdon), 1. This compound also showed an average category in [6] of 2.0.
With “IAA-N-BSA: indoleacetic acid-N-conjugate with BSA”, the “category of relative overall effect” value in assay [8] (carnation m. brilj.) is reported as 1; in assay [8] (carnation tempo), 3; in assay [3] (setting [28]), 1; in assay [3] (rose n. brier) it was 3; in assay [5] (setting [29]) it was 1; in assay [5] (chrys. snowdon), 2. This compound came in with an average category in assay [6] of 1.8. In addition, the “overall assessment of rooting powders from Table 2” value in assay [6] (in vivo) is given as “especially suited for recalcitrant plants”. In assay [9], the “maximum of roots per tissue fragment” value turned out to be 8 roots per tissue fragment.
Regarding `CC/C=C\C[C@H]1C(=O)CC[C@@H]1CC(=O)O` [jasmonic acid], the “increased regeneration in relation” value in assay [2] (elicitor 0.01 μM) amounted to 210%.
Take `CC(C)(C)OC(=O)NOCC(=O)O` [t-Boc-AOA, tertiair-butyloxycarbonylaminooxyacetic acid]: the “Percentage of flowers” value in assay [1] (setting [12]), in assay [1] (setting [13]), in assay [1] (setting [14]), in assay [1] (setting [15]), in assay [1] (setting [16]) and in assay [1] (setting [17]) was 100% throughout. Besides, the “Percentage of flowers” value is given as 100% in assay [1] (setting [18]); 100% in [1] (setting [19]); 100% in assay [1] (setting [20]); 100% in assay [1] (setting [21]); 85% in assay [1] (setting [22]); 75% in assay [1] (setting [23]). The “Percentage of flowers” value in assay [1] (setting [24]) was 53%; in assay [1] (setting [25]), 30%; in [1] (setting [26]), 4%; in [1] (setting [27]), 0%. For the same compound, in assay [1] (summary of Table 3), the “delaying flower senescence, compared with STS” value is listed as “generally comparable to or superior to STS”.
Turning to `CC(=O)Nc1ccc(O)cc1` [4-acetamidophenol], the “increased regeneration in relation” value in [2] (elicitor 1 μM) was determined as 75%.
For `CC(C)(NC(=O)CCCc1c[nH]c2ccccc12)C(=O)O` [IBA-AIB], the “rooting compared with standard hormone treatment / IBA alone” value in [10] is listed as “more active than the standard hormone treatment”.
Take `CC(C)(NC(=O)CCC(=O)NC(C)(C)C(=O)O)C(=O)O` [A-S-A]: the “activity in retarding the aging of the flowers, times relative to non-modified AIB” value in assay [7] (in water, concentration 5×10^−5 to 10^−3 M, carnations) is recorded as 50.
As for “IAA-C-BSA: indoleacetic acid-C-conjugate with BSA”, the “effectiveness in root induction, comparison” value in assay [11] was “somewhat less effective in root induction as IAA-N-BSA, but still better than IAA alone”.
Turning to `C=CC(C)(C)OC[C@H]1O[C@H](O[C@@H]2C3=C([C@H](C)COC(C)=O)C[C@H](O)[C@]3(C)/C=C3/[C@@H](COC)CC[C@H]3[C@@H](C)[C@H]2O)[C@H](O)[C@@H](OC(C)=O)[C@@H]1O` [fusicocine], in assay [2] (elicitor 0.01 μM), the “increased regeneration in relation” value is 75%.
As to `O=C(O)Cc1c[nH]c2ccccc12` [IAA, indole-3-acetic acid, reference compound], the “maximum of roots per tissue fragment” value in [9] amounted to 3.5 roots per tissue fragment.
